Here are results for 10 compounds from DBAASP.

Values after ≈ are worked out from the molar mass of the structure shown.

By MIC is commonly meant the lowest concentration found to suppress growth. Read a low MIC as inhibition by little substance.

Holding throughout (experiment): ≥ marks a high value that may be exact or a test limit, other limits are often not marked, values filed in µg/mL are converted to µM
Test [1] has as its system Pseudomonas aeruginosa Ps4.
The subject of test [2] is Staphylococcus aureus ATCC 25923.
Test [3] deals with Escherichia coli ATCC 25922.
The test system of test [4] is Enterococcus faecalis PCM 2673.
Test [5] has as its system Candida albicans ATCC 10231.
The subject of test [6] is Pseudomonas aeruginosa ATCC 9027.
The test system of test [7] is Klebsiella pneumoniae ATCC 700603.
The test system of test [8] is Acinetobacter baumannii ATCC 19606.
Test [9] relates to Staphylococcus aureus SH1000.
Test [10] has as its system Staphylococcus aureus ATCC 43300.
The subject of test [11] is Cryptococcus neoformans ATCC 208821.
Test [12] deals with Pseudomonas aeruginosa ATCC 27853.
The test system of test [13] is Candida albicans ATCC 90028.
Test [14] deals with Pseudomonas aeruginosa PAO1.
The subject of another test is Escherichia coli BL21.
In test [15] the test system is Staphylococcus epidermidis.
Test [16] relates to Staphylococcus aureus ATCC BAA-41.
The subject of test [17] is Staphylococcus aureus ATCC 6538P.
The subject of test [18] is Burkholderia cepacia ATCC 25416.
The subject of test [19] is Pseudomonas aeruginosa H744.
Test [20] has as its system Pseudomonas aeruginosa H547.
Test [21] concerns Salmonella enterica subsp. enterica serovar Typhimurium ATCC 14028s.
Test [22] deals with Pseudomonas aeruginosa Z61.
The test system of the next test is Escherichia coli UB1005.
For test [23], the system named is Pseudomonas aeruginosa K799.
The subject of test [24] is Pseudomonas aeruginosa H374.

For `CC[C@H](C)[C@H](NC(=O)[C@H](CCCN=C(N)N)NC(=O)[C@@H](NC(=O)[C@H](CC(N)=O)NC(=O)[C@H](CCCN=C(N)N)NC(=O)[C@H](Cc1c[nH]c2ccccc12)NC(=O)[C@@H](N)Cc1ccccc1)[C@@H](C)CC)C(=O)N[C@@H](Cc1c[nH]c2ccccc12)C(=O)N[C@@H](CCCN=C(N)N)C(=O)N[C@@H](CCCN=C(N)N)C(N)=O` [FWRNIRIWRR], the MIC in test [1] was ≥ 166 µM.
With `CC[C@H](C)[C@H](NC(=O)[C@H](C)NC(=O)[C@H](CC(=O)O)NC(=O)[C@H](Cc1ccccc1)NC(=O)[C@H](CC(C)C)NC(=O)CN)C(=O)N[C@@H](CCCCN)C(=O)N[C@@H](CCCCN)C(=O)N[C@H](C(=O)N[C@@H](C)C(=O)N[C@@H](CCC(=O)O)C(=O)N[C@@H](CO)C(=O)N[C@@H](Cc1ccccc1)C(N)=O)[C@@H](C)CC` [GLFDAIKKIAESF], the MIC was > 356 µM in [2]; 178 µM (≈ 256 µg/mL) in [3]; ≥ 89 µM in test [4]; 178 µM (≈ 256 µg/mL) in test [5]; 356 µM (≈ 512 µg/mL) in test [6].
As for `CC(C)C[C@H](NC(=O)[C@H](C)NC(=O)CNC(=O)[C@@H](NC(=O)[C@@H](NC(=O)[C@H](CCCCN)NC(=O)[C@H](CCCCN)NC(=O)[C@@H](NC(=O)[C@H](CC(C)C)NC(=O)[C@H](CCCCN)NC(=O)[C@H](CC(C)C)NC(=O)[C@H](CC(C)C)NC(=O)[C@@H](N)CCCCN)C(C)C)C(C)C)C(C)C)C(=O)NCC(N)=O` [KLLKLVKKVVGALG], the MIC in test [7] was > 22 µM; in test [8], > 22 µM; in [9], ≥ 33 µM; in [10] it was > 22 µM; in test [3], > 22 µM; in [11] it was 22 µM (≈ 32.2 µg/mL). Besides, the MIC is > 22 µM in test [12] and 22 µM (≈ 32.2 µg/mL) in [13].
`CC[C@H](C)[C@H](NC(=O)[C@H](CCCCN)NC(=O)[C@H](CCCCN)NC(=O)[C@H](Cc1ccccc1)NC(=O)[C@H](CCCCN)NC(=O)[C@H](CCCCN)NC(=O)[C@H](Cc1c[nH]c2ccccc12)NC(=O)[C@@H](N)CCCCN)C(=O)NCC(=O)N[C@@H](CCCCN)C(=O)N[C@H](C(=O)N[C@@H](CC(C)C)C(=O)N[C@@H](CCCCN)C(=O)N[C@H](C(=O)N[C@@H](CC(C)C)C(=O)O)C(C)C)C(C)C` [KWKKFKKIGKVLKVL]: the minimal inhibitory concentration (MIC) in [14] was 0.707 µM (≈ 1.3 µg/mL); with Escherichia coli BL21 it was 0.5 µM (≈ 0.922 µg/mL); in test [15], 0.25 µM (≈ 0.461 µg/mL); in [16], 16 µM (≈ 29.5 µg/mL); in test [17], 16 µM (≈ 29.5 µg/mL).
For `CC(C)C[C@H](NC(=O)[C@H](C)NC(=O)[C@H](CCCCN)NC(=O)[C@H](CC(C)C)NC(=O)[C@H](CC(C)C)NC(=O)[C@H](CCCCN)NC(=O)[C@H](CCCCN)NC(=O)[C@H](CC(C)C)NC(=O)[C@H](CC(C)C)NC(=O)[C@H](CCCCN)NC(=O)[C@H](CC(C)C)NC(=O)[C@H](CC(C)C)NC(=O)[C@@H](N)CCCCN)C(=O)NCC(N)=O` [KLLKLLKKLLKALG], the MIC in test [7] was > 20 µM; in test [8], 1 µM (≈ 1.58 µg/mL); in test [9], ≥ 33 µM; in [10], 10 µM (≈ 15.8 µg/mL); in [3], 20 µM (≈ 31.6 µg/mL); in test [11], 3 µM (≈ 4.73 µg/mL). The MIC is > 20 µM in [12] and 20 µM (≈ 31.6 µg/mL) in test [13].
With `CC[C@H](C)[C@H](NC(=O)[C@H](CCCCN)NC(=O)[C@H](CCCCN)NC(=O)[C@H](Cc1ccccc1)NC(=O)[C@H](CCCCN)NC(=O)[C@H](CCCCN)NC(=O)[C@H](Cc1c[nH]c2ccccc12)NC(=O)[C@@H](N)CCCCN)C(=O)NCC(=O)N[C@@H](C)C(=O)N[C@H](C(=O)N[C@@H](CC(C)C)C(=O)N[C@@H](CCCCN)C(=O)N[C@H](C(=O)N[C@@H](CC(C)C)C(=O)O)C(C)C)C(C)C` [KWKKFKKIGAVLKVL], the MIC in [14] turned out to be 0.707 µM (≈ 1.26 µg/mL); with Escherichia coli BL21, 0.354 µM (≈ 0.632 µg/mL); in test [15], 0.5 µM (≈ 0.893 µg/mL); in [16], 16 µM (≈ 28.6 µg/mL); in [17], 16 µM (≈ 28.6 µg/mL).
As to `NC(=O)CC[C@H](NC(=O)[C@H](Cc1c[nH]c2ccccc12)NC(=O)[C@@H](N)Cc1ccccc1)C(=O)N[C@@H](CCCN=C(N)N)C(=O)N[C@@H](CC(N)=O)C(=O)N[C@@H](Cc1c[nH]c2ccccc12)C(=O)N[C@@H](CCCN=C(N)N)C(=O)N[C@@H](Cc1c[nH]c2ccccc12)C(=O)N[C@@H](CCCN=C(N)N)C(=O)N[C@@H](CCCN=C(N)N)C(N)=O` [FWQRNWRWRR], in test [1], the MIC was ≥ 157 µM.
Turning to `CC[C@H](C)[C@H](NC(=O)[C@H](CCCCN)NC(=O)[C@H](CCCCN)NC(=O)[C@@H](NC(=O)[C@@H](NC(=O)[C@H](CC(=O)O)NC(=O)[C@H](C)NC(=O)[C@H](CC(C)C)NC(=O)CN)[C@@H](C)CC)[C@@H](C)CC)C(=O)N[C@@H](C)C(=O)N[C@@H](CCC(=O)O)C(=O)N[C@@H](CO)C(=O)N[C@@H](Cc1ccccc1)C(N)=O` [GLADIIKKIAESF], the MIC is 365 µM (≈ 512 µg/mL) in test [2]; 91.1 µM (≈ 128 µg/mL) in [3]; ≥ 182 µM in test [4]; 91.1 µM (≈ 128 µg/mL) in [5]; 365 µM (≈ 512 µg/mL) in test [6].
On to `CC[C@H](C)[C@H](NC(=O)CNC(=O)[C@@H](NC(=O)[C@H](CCCCN)NC(=O)[C@H](CCCCN)NC(=O)[C@H](Cc1ccccc1)NC(=O)[C@H](CC(C)C)NC(=O)[C@H](CCCCN)NC(=O)[C@H](Cc1c[nH]c2ccccc12)NC(=O)[C@@H](N)CCCCN)[C@@H](C)CC)C(=O)NCC(=O)N[C@@H](C)C(=O)N[C@H](C(=O)N[C@@H](CC(C)C)C(=O)N[C@@H](CCCCN)C(=O)N[C@H](C(=O)N[C@@H](CC(C)C)C(=O)N[C@H](C(=O)N[C@H](C(=O)NCC(=O)N[C@@H](CC(C)C)C(=O)N1CCC[C@H]1C(=O)N[C@@H](C)C(=O)N[C@@H](CC(C)C)C(=O)N[C@@H](CCCCN)C(=O)N[C@@H](CC(C)C)C(=O)N[C@H](C(=O)N[C@@H](CC(C)C)C(=O)N[C@@H](CCCCN)C(=O)O)[C@@H](C)O)[C@@H](C)O)[C@@H](C)O)C(C)C)C(C)C` [KWKLFKKIGIGAVLKVLTTGLPALKLTLK], for which the MIC in [18] worked out at 20.1 µM (≈ 64 µg/mL); in [19], 1.26 µM (≈ 4 µg/mL); in test [20], 1.26 µM (≈ 4 µg/mL); in test [21], 0.944 µM (≈ 3 µg/mL); in [22], 0.944 µM (≈ 3 µg/mL); in the test on Escherichia coli UB1005, 0.944 µM (≈ 3 µg/mL). The compound further returned an MIC in [23] of 1.26 µM (≈ 4 µg/mL).
With `CC[C@H](C)[C@H](NC(=O)[C@H](Cc1ccccc1)NC(=O)[C@H](CO)NC(=O)[C@H](CCCCN)NC(=O)[C@H](Cc1c[nH]c2ccccc12)NC(=O)[C@@H](N)CCCCN)C(=O)N[C@@H](CCCCN)C(=O)N[C@@H](CCCCN)C(=O)N[C@@H](CC(C)C)C(=O)N[C@H](C(=O)N[C@@H](CO)C(=O)N[C@@H](C)C(=O)N[C@@H](C)C(=O)N[C@@H](CCCCN)C(=O)N[C@@H](CCCCN)C(=O)N[C@H](C(=O)N[C@H](C(=O)N[C@H](C(=O)N[C@@H](C)C(=O)N[C@@H](C)C(=O)N[C@@H](CCCCN)C(=O)N1CCC[C@H]1C(=O)N[C@@H](CC(C)C)C(=O)N[C@H](C(=O)N[C@@H](CCCCN)C(=O)O)[C@@H](C)O)[C@@H](C)O)[C@@H](C)O)C(C)C)[C@@H](C)O` [KWKSFIKKLTSAAKKVTTAAKPLTK], the MIC was 23.1 µM (≈ 64 µg/mL) in test [18]; 2.88 µM (≈ 8 µg/mL) in [19]; 2.88 µM (≈ 8 µg/mL) in test [24]; 5.76 µM (≈ 16 µg/mL) in test [20]; 15.5 µM (≈ 43 µg/mL) in [21]; 8.65 µM (≈ 24 µg/mL) in [22]. In addition, the values for the MIC (with Escherichia coli UB1005; in test [23]) were 0.721 µM (≈ 2 µg/mL) and 23.1 µM (≈ 64 µg/mL), respectively.
